These results are taken from patent publication EP0336326A2, “3-Aminodihydrothiophene-2-one peptide derivatives, processes for the preparation and therapeutic use” (POLI INDUSTRIA CHIMICA S.p.A., priority 1988, dated 1989).

Like-named read-outs stand apart in the source and are kept apart here.

For assay [1], the system named is Bordetella pertussis induced edema. The assay can be described thus: antiinflammatory activity: Bordetella pertussis induced edema test. The assay is classed as in vivo. Conditions: in Rattus norvegicus, po, 24 h, read-out: reduce the edema after 24 hours. How it is done: The antiinflammatory activity was evaluated by the test of Bordetella pertussis induced edema in the rat (F. Capasso, Agents and Actions, 11, 741, 1981).

The next assay deals with 4% mucin suspension. The assay can be described thus: in vitro mucolytic activity test with a 4% mucin suspension. The assay is classed as biochemical. The note with it: equimolar concentrations (0.00625 M), after hydrolysis with rat serum; 6250 µM.
A short description of assay [2]: mucolytic-expectorant activity: test of fluorescein elimination from the respiratory tract. The class given is in vivo. The note with it: po; 0.5 mM/kg orally; in comparison with the controls; read-out: increase in the dye excretion.
The next assay relates to CCl4intoxication. The assay can be described thus: hepatoprotective activity: CCl4 intoxication test. The assay is classed as in vivo. Conditions: ip, rat, 0.25 mM/kg i.p. How it is done:
The hepatoprotective activity was determined by the CCl4intoxication test in the rat (E. C. Ferreyra et al., Toxic. Appl. Pharmacol., 27, 558, 1974).

The subject of another assay is hystamine shock. Put plainly: antibronchospastic activity: histamine shock test. The class given is in vivo. The note with it: Cavia porcellus, ip; guinea pig; 0.25 mM/kg i.p.; compared with the basal values; read-out: increase resistance times against shock. As to the method: The antibronchospastic activity of the compounds of the present invention was evaluated by the hystamine shock test in guinea pig (P. C. Braga et al., Min. Pneumol., 23, 447, 1984).

For assay [3], the system named is elastase-induced emphysema. The assay can be described thus: antiemphysema activity: pancreatic elastase induced emphysema, mean linear intercept (MLI) morphometry. The class given is in vivo. The note with it: hamster; 0.25 mM/kg per os, during 4 weeks. The text has this: The compounds of the present invention also display an interesting antiemphysema activity in the hamster (P.J. Stone et al., Amer. Rev. Respir. Dis., 124, 56, 1981). Emphysema induced by pancreatic elastase is morphometrically measured by evaluating, in µm, the mean linear intercept (MLI) (J. Kleinerman et al., Amer. Rev. Respir. Dis., 121, 381, 1980).

[4] abbreviates: in comparison with intoxicated controls, read-out: reduce serum GOT.
Setting [5] is: in comparison with the intoxicated controls, read-out: reduce serum GPT.

Take `CC(=O)N[C@@H](CSC(=O)c1cccs1)C(=O)NC1CCSC1=O` (stereo partly drawn) [Compound V, 3-(N-acetyl-S-(2-thenoyl)-cysteinyl)aminodihydrothiophene-2-one]: the inhibition in vivo at 500 µM, 500 µmol/kg in assay [1] was found to be 35.8%. Moreover, the reductions in viscosity in the assay with 4% mucin suspension amounted to 12.4%. The change in vivo at 500 µM, 500 µmol/kg in assay [2] stood at 67.6%. The figures for the inhibition in vivo at 250 µM, 250 µmol/kg in the assay on CCl4intoxication (setting [4]) and with CCl4intoxication (setting [5]) were 56.1% and 47.6%, respectively. Further, the change in vivo at 250 µM, 250 µmol/kg with hystamine shock is 181%. Further, in assay [3], the “reduce the MLI increase in elastase-induced emphysema” value (from here on “reduce the MLI increase”) is listed as 32.7%.
For the compound `CC(S)C(=O)NCC(=O)N1CSC[C@H]1C(=O)O` (stereo partly drawn) [Compound VII, L-3-[(2-thiolpropionyl)glycyl]thiazolidin-4-carboxylic acid], the inhibition in vivo at 500 µM, 500 µmol/kg in assay [1] is 37.9%. The reductions in viscosity in the assay on 4% mucin suspension was 13.6%. The change in vivo at 500 µM, 500 µmol/kg in assay [2] is 71.9%. For the same compound, the inhibition in vivo at 250 µM, 250 µmol/kg with CCl4intoxication (setting [4]) was 59.3%; with CCl4intoxication (setting [5]), 51.9%. The change in vivo at 250 µM, 250 µmol/kg with hystamine shock amounted to 188%. The “reduce the MLI increase” value in assay [3] came out at 34.9%.
`CC(SC(=O)c1cccs1)C(=O)NCC(=O)NC1CCSC1=O` (racemic) [Compound III]: in assay [1], the inhibition in vivo at 500 µM, 500 µmol/kg was determined as 41.8%. In the assay on 4% mucin suspension, this compound gave a reductions in viscosity of 13.1%. For the same compound, the change in vivo at 500 µM, 500 µmol/kg in assay [2] was 71.3%. The results for the inhibition in vivo at 250 µM, 250 µmol/kg in the assay with CCl4intoxication (setting [4]) and with CCl4intoxication (setting [5]) were 54.7% and 54.1%, respectively. The change in vivo at 250 µM, 250 µmol/kg in the assay on hystamine shock stood at 186%. Moreover, the “reduce the MLI increase” value in assay [3] was 32.7%.
As to `CC(SC(=O)c1cccs1)C(=O)NCC(=O)N1CSC[C@H]1C(=O)NC1CCSC1=O` (stereo partly drawn) [Compound VIII, 3-{L-3-[(2-thenoylthiopropionyl)glycyl]thiazolidin-4-carbonyl}aminodihydrothiophene-2-one], the inhibition in vivo at 500 µM, 500 µmol/kg in assay [1] was determined as 38.1%. Besides, the reductions in viscosity with 4% mucin suspension is 13.2%. For the same compound, the change in vivo at 500 µM, 500 µmol/kg in assay [2] turned out to be 70.8%. Moreover, the inhibition in vivo at 250 µM, 250 µmol/kg in the assay with CCl4intoxication (setting [4]) came to 60.1%; in the assay on CCl4intoxication (setting [5]), 54.1%. The change in vivo at 250 µM, 250 µmol/kg in the assay on hystamine shock was found to be 188%. Further, the “reduce the MLI increase” value in assay [3] turned out to be 35.4%.
`CC(S)C(=O)NCC(=O)NC1CCSC1=O` (stereo not shown) [Compound II, 3-[(2-thiolpropionyl)glycyl]aminodihydrothiophene-2-one]: in assay [1], the inhibition in vivo at 500 µM, 500 µmol/kg is 42.1%. In the assay on 4% mucin suspension, this compound showed a reductions in viscosity of 13.4%. Moreover, the change in vivo at 500 µM, 500 µmol/kg in assay [2] amounted to 72%. For the same compound, the inhibition in vivo at 250 µM, 250 µmol/kg was determined as 55.8% in the assay on CCl4intoxication (setting [4]) and 52.3% in the assay with CCl4intoxication (setting [5]). In addition, the change in vivo at 250 µM, 250 µmol/kg in the assay on hystamine shock was 190%. The “reduce the MLI increase” value in assay [3] is on record as 30.6%.
As to `CC(S)C(=O)NCC(=O)N1CSC[C@H]1C(=O)NC1CCSC1=O` (stereo partly drawn) [Compound VI, 3-{L-3-[(2-thiolpropionyl)glycyl]thiazolidin-4-carbonyl} aminodihydrothiophene-2-one], in assay [1], the inhibition in vivo at 500 µM, 500 µmol/kg is 38.7%. Besides, the reductions in viscosity in the assay with 4% mucin suspension stood at 13.4%. For the same compound, the change in vivo at 500 µM, 500 µmol/kg in assay [2] was 74.1%. The inhibition in vivo at 250 µM, 250 µmol/kg turned out to be 58.5% in the assay with CCl4intoxication (setting [4]) and 52.8% in the assay on CCl4intoxication (setting [5]). Also, in the assay on hystamine shock, the change in vivo at 250 µM, 250 µmol/kg amounted to 191%. In assay [3], the “reduce the MLI increase” value was found to be 35.6%.
Take `CC(=O)N[C@@H](CS)C(=O)O` [N-acetyl-cysteine, reference compound]: the inhibition in vivo at 500 µM, 500 µmol/kg in assay [1] was 23.2%. In the assay on 4% mucin suspension, the reductions in viscosity came to 10.8%. Also, in assay [2], the change in vivo at 500 µM, 500 µmol/kg stood at 45.6%. Moreover, the inhibition in vivo at 250 µM, 250 µmol/kg in the assay on CCl4intoxication (setting [4]) was found to be 39.9%; in the assay with CCl4intoxication (setting [5]), 37.8%. The change in vivo at 250 µM, 250 µmol/kg with hystamine shock came out at 168%.
In the case of `CC(S)C(=O)NCC(=O)O` (stereo not shown) [tiopronin, reference compound], the inhibition in vivo at 500 µM, 500 µmol/kg in assay [1] amounted to 28.6%. This compound also registered a reductions in viscosity in the assay on 4% mucin suspension of 11.5%. Further, in assay [2], the change in vivo at 500 µM, 500 µmol/kg was determined as 55.8%. Further, the results for the inhibition in vivo at 250 µM, 250 µmol/kg in the assay with CCl4intoxication (setting [4]) and in the assay on CCl4intoxication (setting [5]) were 42.2% and 39.8%, respectively. Further, the change in vivo at 250 µM, 250 µmol/kg with hystamine shock came out at 166%.
`CC(=O)N[C@@H](CS)C(=O)N[C@H]1CCSC1=O` [Compound IV, L-3-[(N-acetylcysteinyl)]aminodihydrothiophene-2-one]: the inhibition in vivo at 500 µM, 500 µmol/kg in assay [1] came out at 36.7%. Moreover, the reductions in viscosity with 4% mucin suspension is reported as 12.8%. Besides, in assay [2], the change in vivo at 500 µM, 500 µmol/kg is 68.5%. In addition, the inhibition in vivo at 250 µM, 250 µmol/kg with CCl4intoxication (setting [4]) was 52.7%; with CCl4intoxication (setting [5]), 48.7%. The change in vivo at 250 µM, 250 µmol/kg with hystamine shock worked out at 180%. Further, the “reduce the MLI increase” value in assay [3] is listed as 31.8%.
